Consider 32 compounds from patent US20150141433A1, “N-ARYLMETHYL SULFONAMIDE NEGATIVE MODULATORS OF NR2A” (Mnemosyne Pharmaceuticals, Inc., priority 2013, published 2015).

For the first assay, the target named is T1, NR1/NR2A (Homo sapiens, UniProt Q05586+Q12879).
T1 construct: host or cells: HEK293 (tetracycline-inducible NR2A expression)
T1 sequence (Q12879 23-1464, other chains not shown): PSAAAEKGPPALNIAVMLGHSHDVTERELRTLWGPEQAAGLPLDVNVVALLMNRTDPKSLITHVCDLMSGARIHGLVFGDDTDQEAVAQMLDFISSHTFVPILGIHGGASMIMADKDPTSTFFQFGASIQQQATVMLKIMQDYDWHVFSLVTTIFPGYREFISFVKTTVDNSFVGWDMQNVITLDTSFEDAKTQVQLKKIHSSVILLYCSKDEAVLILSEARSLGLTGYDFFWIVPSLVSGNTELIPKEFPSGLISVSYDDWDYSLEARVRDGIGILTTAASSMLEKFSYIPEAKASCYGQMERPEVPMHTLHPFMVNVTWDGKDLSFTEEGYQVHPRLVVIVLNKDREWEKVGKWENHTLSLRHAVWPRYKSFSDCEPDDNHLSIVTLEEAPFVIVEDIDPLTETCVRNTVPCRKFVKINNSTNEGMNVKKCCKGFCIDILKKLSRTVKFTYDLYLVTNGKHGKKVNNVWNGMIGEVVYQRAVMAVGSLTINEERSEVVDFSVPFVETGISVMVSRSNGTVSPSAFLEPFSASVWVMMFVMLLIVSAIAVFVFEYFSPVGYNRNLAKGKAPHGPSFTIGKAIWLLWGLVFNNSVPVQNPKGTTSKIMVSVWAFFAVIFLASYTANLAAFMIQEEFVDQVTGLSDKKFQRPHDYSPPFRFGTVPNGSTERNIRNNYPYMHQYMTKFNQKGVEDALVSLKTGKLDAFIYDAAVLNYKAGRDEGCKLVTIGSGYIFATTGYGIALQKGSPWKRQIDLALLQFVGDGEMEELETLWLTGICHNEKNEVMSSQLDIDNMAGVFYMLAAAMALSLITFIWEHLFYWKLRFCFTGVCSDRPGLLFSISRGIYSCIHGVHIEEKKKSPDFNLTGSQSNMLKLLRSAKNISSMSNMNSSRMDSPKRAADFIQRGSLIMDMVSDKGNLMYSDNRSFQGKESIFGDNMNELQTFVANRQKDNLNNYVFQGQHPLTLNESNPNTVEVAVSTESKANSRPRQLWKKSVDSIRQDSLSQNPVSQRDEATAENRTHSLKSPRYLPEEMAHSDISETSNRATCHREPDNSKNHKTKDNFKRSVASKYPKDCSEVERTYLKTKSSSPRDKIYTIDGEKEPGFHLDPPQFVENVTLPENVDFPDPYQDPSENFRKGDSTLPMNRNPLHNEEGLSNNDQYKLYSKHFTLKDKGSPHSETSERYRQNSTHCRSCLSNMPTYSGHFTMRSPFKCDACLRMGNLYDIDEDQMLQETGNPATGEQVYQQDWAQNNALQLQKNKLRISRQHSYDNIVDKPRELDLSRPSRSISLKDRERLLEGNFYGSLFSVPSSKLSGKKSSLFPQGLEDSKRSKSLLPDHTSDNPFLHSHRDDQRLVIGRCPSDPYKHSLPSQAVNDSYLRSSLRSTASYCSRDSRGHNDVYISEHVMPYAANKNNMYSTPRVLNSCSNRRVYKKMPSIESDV
Briefly: FDSS Ca2+ influx inhibition assay in HEK293 cells expressing NR1/NR2A. Format: cell-based. To be noted: 3 μM glutamate, 3 μM glycine, 1 mM Ca2+, Ca2+ influx inhibition relative to MK801, read-out: NR2A IC50. As to the method:
Cell Culture and plating: HEK293 cells expressing NR1/NR2A (Chantest, Cleveland, Ohio) were grown to 70-80% confluency as an adherent monolayer in standard tissue culture flasks at 37° C., 5% CO2 per supplier's instructions.
After induction, cell culture medium was removed and cells were rinsed once with Ca^2+ and Mg^2+-free Dulbecco's phosphate buffered saline. Cells were then removed from the flask using TrypLE™ Express (Life Technologies) according to the manufacturer's instructions and collected to 50 ml centrifuge tubes. Following two washes in Ca^27 Mg^2′-free HBSS with 20 mM HEPES (HHnoCa), cells were counted and viability assessed using trypan blue. To load cells with Ca^2′-sensitive dye, they were resuspended in fluo-8 plus Component B (AAT Bioquest Products) diluted in HHnoCa and incubated 15 minutes at 37° C., followed by 30 minutes at room temp (in dark). Cells were then washed and resuspended in HHnoCa to remove extracellular dye and plated in 384-well plates (Falcon, uncoated) at 20,000-30,000 cells/well in a final volume of 25 μL/well.
FDSS Assay: To each well of the plate, 10 μLtest compound, control (MK801) or HHnoCa buffer was added to a final concentration of 10 μM with a final concentration of DMSO of 0.1%. Following 10 minutes pre-incubation in the dark, plates are loaded onto the Hamamatsu FDSS 6000. After collecting baseline fluorescence images, 3 μM glutamate, 3 μM glycine, and 1 mM Ca^2+ in HHnoCa buffer is added to each well, and Ca^2+ is recorded for 3 minutes. Data were processed by computing ratio of fluorescence at the end of data collection to baseline fluorescence to assess degree of Ca^2+ influx inhibition relative to that observed in MK801.
`Cc1ncc(CNC(=O)c2cnc(CNS(=O)(=O)c3ccc(F)c(Cl)c3)c(C(F)(F)F)n2)s1` [5-(3-chloro-4-fluorobenzenesulfon-amidomethyl)-N-[(2-methyl-1,3-thiazol-5-yl)methyl]-6-(trifluoromethyl)pyrazine-2-carboxamide]: the IC50 is 169 nM. For `Cn1cncc1CNC(=O)c1ccc(CNS(=O)(=O)c2ccc(F)c(Cl)c2)cn1` [5-(3-chloro-4-fluorobenzenesulfon-amidomethyl)-N-[(1-methyl-1H-imidazol-5-yl)methyl]pyridine-2-carboxamide], the IC50 came to 8360 nM.

As for `Cc1ncc(CNC(=O)c2cnc(CNS(=O)(=O)c3ccc(F)cc3)cn2)s1` [5-(4-fluorobenzenesulfon-amidomethyl)-N-[(2-methyl-1,3-thiazol-5-yl)methyl]pyrazine-2-carboxamide], the IC50 was 5510 nM. Regarding `Cc1ncc(CNC(=O)c2ccc(CNS(=O)(=O)c3cccc(Cl)c3)cn2)s1` [5-(3-chlorobenzenesulfon-amidomethyl)-N-[(2-methyl-1,3-thiazol-5-yl)methyl]pyridine-2-carboxamide], the IC50 was 1040 nM. Consider `Cc1nnc(CNC(=O)c2ccc(CNS(=O)(=O)c3ccc(F)c(Cl)c3)cn2)o1` [5-(3-chloro-4-fluorobenzenesulfon-amidomethyl)-N-[(5-methyl-1,3,4-oxadiazol-2-yl)methyl]pyridine-2-carboxamide], for which the IC50 came to 2830 nM. As to `Cc1cnc(CNC(=O)c2cnc(CNS(=O)(=O)c3ccc(F)c(Cl)c3)cn2)cn1` [5-(3-chloro-4-fluorobenzenesulfon-amidomethyl)-N-[(5-methylpyrazin-2-yl)methyl]pyrazine-2-carboxamide], the IC50 is 1250 nM. On the same count and under the same terms, with `O=C(NCc1cncs1)c1cnc(CNS(=O)(=O)c2ccc(F)c(Cl)c2)cn1` [5-(3-chloro-4-fluorobenzenesulfon-amidomethyl)-N-(1,3-thiazol-5-ylmethyl)pyrazine-2-carboxamide] the figure was 929 nM; with `Cc1nnc(CNC(=O)c2cnc(CNS(=O)(=O)c3ccc(F)c(Cl)c3)cn2)s1` [5-(3-chloro-4-fluorobenzenesulfon-amidomethyl)-N-[(5-methyl-1,3,4-thiadiazol-2-yl)methyl]pyrazine-2-carboxamide], 624 nM; with `Cc1ncc(CNC(=O)c2cnc(CNS(=O)(=O)c3cc(Cl)ccc3F)c(C)n2)s1` [5-(5-chloro-2-fluorobenzenesulfon-amidomethyl)-6-methyl-N-[(2-methyl-1,3-thiazol-5-yl)methyl]pyrazine-2-carboxamide], 8060 nM.

Regarding `Cc1csc(CNC(=O)c2cnc(CNS(=O)(=O)c3ccc(F)c(Cl)c3)cn2)n1` [5-(3-chloro-4-fluorobenzenesulfon-amidomethyl)-N-[(4-methyl-1,3-thiazol-2-yl)methyl]pyrazine-2-carboxamide], the IC50 was ≥ 10000 nM.

As for `O=C(NCc1cncnc1)c1cnc(CNS(=O)(=O)c2ccc(F)c(Cl)c2)cn1` [5-(3-chloro-4-fluorobenzenesulfon-amidomethyl)-N-(pyrimidin-5-ylmethyl)pyrazine-2-carboxamide], the IC50 turned out to be 4840 nM. As to `Cc1ncc(CNC(=O)c2cnc(CNS(=O)(=O)c3ccc(Cl)c(F)c3)c(C)n2)s1` [5-(4-chloro-3-fluorobenzenesulfon-amidomethyl)-6-methyl-N-[(2-methyl-1,3-thiazol-5-yl)methyl]pyrazine-2-carboxamide], the IC50 came to 1020 nM. In the case of `O=C(NCc1ccno1)c1ccc(CNS(=O)(=O)c2ccc(F)c(Cl)c2)cn1` [5-(3-chloro-4-fluorobenzenesulfon-amidomethyl)-N-(1,2-oxazol-5-ylmethyl)pyridine-2-carboxamide], the IC50 is 2180 nM.

`COc1ccc(CNC(=O)c2ccc(CNS(=O)(=O)c3ccc(F)c(Cl)c3)cn2)cn1` [5-(3-chloro-4-fluorobenzenesulfon-amidomethyl)-N-[(6-methoxypyridin-3-yl)methyl]pyridine-2-carboxamide]: the IC50 stood at 2000 nM. For the compound `Cn1cccc1CNC(=O)c1cnc(CNS(=O)(=O)c2ccc(F)c(Cl)c2)cn1` [5-(3-chloro-4-fluorobenzenesulfon-amidomethyl)-N-[(1-methyl-1H-pyrrol-2-yl)methyl]pyrazine-2-carboxamide], the IC50 is 3090 nM. Same read-out and setting: with `Cc1ccncc1CNC(=O)c1ccc(CNS(=O)(=O)c2ccc(F)c(Cl)c2)nc1` [6-(3-chloro-4-fluorobenzenesulfon-amidomethyl)-N-[(4-methylpyridin-3-yl)methyl]pyridine-3-carboxamide] the figure was 9750 nM; with `Cc1ncc(C(C)NC(=O)c2cnc(CNS(=O)(=O)c3ccc(F)c(Cl)c3)cn2)s1` (stereo not drawn) [5-(3-chloro-4-fluorobenzenesulfon-amidomethyl)-N-[1-(2-methyl-1,3-thiazol-5-yl)ethyl]pyrazine-2-carboxamide], 180 nM; with `O=C(NCc1cnco1)c1ccc(CNS(=O)(=O)c2ccc(F)c(Cl)c2)cn1` [5-(3-chloro-4-fluorobenzenesulfon-amidomethyl)-N-(1,3-oxazol-5-ylmethyl)pyridine-2-carboxamide], 1950 nM.

On to `Cn1ccnc1CNC(=O)c1ccc(CNS(=O)(=O)c2ccc(F)c(Cl)c2)nc1` [6-(3-chloro-4-fluorobenzenesulfon-amidomethyl)-N-[(l-methyl-1H-imidazol-2-yl)methyl]pyridine-3-carboxamide], for which the IC50 came out at 108 nM. With `Cc1ncc(CNC(=O)c2cnc(CNS(=O)(=O)c3cc(F)cc(F)c3)c(C)n2)s1` [5-(3,5-difluorobenzenesulfon-amidomethyl)-6-methyl-N-[(2-methyl-1,3-thiazol-5-yl)methyl]pyrazine-2-carboxamide], the IC50 was found to be 366 nM.

On to `O=C(NCc1cccnc1)c1cnc(CNS(=O)(=O)c2ccc(F)c(Cl)c2)cn1` [5-(3-chloro-4-fluorobenzenesulfon-amidomethyl)-N-(pyridin-3-ylmethyl)pyrazine-2-carboxamide], for which the IC50 worked out at 439 nM. Still for that read-out and setting: with `Cc1ncc(CNC(=O)c2ccc(CNS(=O)(=O)c3ccc(F)c(F)c3)cn2)s1` [5-(3,4-difluorobenzenesulfon-amidomethyl)-N-[(2-methyl-1,3-thiazol-5-yl)methyl]pyridine-2-carboxamide] the figure was 219 nM; with `O=C(NCc1cnccn1)c1ccc(CNS(=O)(=O)c2ccc(F)c(Cl)c2)nc1` [6-(3-chloro-4-fluorobenzenesulfon-amidomethyl)-N-(pyrazin-2-ylmethyl)pyridine-3-carboxamide], 790 nM; with `COc1cc(CNC(=O)c2cnc(CNS(=O)(=O)c3ccc(F)c(Cl)c3)cn2)ccn1` [5-(3-chloro-4-fluorobenzenesulfon-amidomethyl)-N-[(2-methoxypyridin-4-yl)methyl]pyrazine-2-carboxamide], 850 nM.

For the compound `C[C@@H](NC(=O)c1cnc(CNS(=O)(=O)c2ccc(F)c(Cl)c2)cn1)c1cncs1` [5-(3-chloro-4-fluorobenzenesulfon-amidomethyl)-N-[(1R)-1-(1,3-thiazol-5-yl)ethyl]pyrazine-2-carboxamide], the IC50 worked out at 10500 nM. As to `Cc1nnc(CNC(=O)c2cnc(CNS(=O)(=O)c3ccc(F)c(Cl)c3)cn2)o1` [5-(3-chloro-4-fluorobenzenesulfon-amidomethyl)-N-[(5-methyl-1,3,4-oxadiazol-2-yl)methyl]pyrazine-2-carboxamide], the IC50 came out at 2430 nM. Turning to `Cc1ncc(CNC(=O)c2ccc(CNS(=O)(=O)c3ccc(F)c(Cl)c3)cn2)s1` [5-(3-chloro-4-fluorobenzenesulfon-amidomethyl)-N-[(2-methyl-1,3-thiazol-5-yl)methyl]pyridine-2-carboxamide], the IC50 turned out to be 204 nM.

For `Cc1ncc(CNC(=O)c2cnc(CNS(=O)(=O)c3cccc(Cl)c3)c(C)n2)s1` [5-(3-chlorobenzenesulfon-amidomethyl)-6-methyl-N-[(2-methyl-1,3-thiazol-5-yl)methyl]pyrazine-2-carboxamide], the IC50 was found to be 39.5 nM.

For the compound `Cc1ncc(CNC(=O)c2cnc(CNS(=O)(=O)c3ccc(F)cc3)c(C)n2)s1` [5-(4-fluorobenzenesulfon-amidomethyl)-6-methyl-N-[(2-methyl-1,3-thiazol-5-yl)methyl]pyrazine-2-carboxamide], the IC50 stood at 137 nM.

For `Cc1ncc(CNC(=O)c2cnc(CNS(=O)(=O)c3ccc(F)c(Cl)c3)c(C)n2)s1` [5-(3-chloro-4-fluorobenzenesulfon-amidomethyl)-6-methyl-N-[(2-methyl-1,3-thiazol-5-yl)methyl]pyrazine-2-carboxamide], the IC50 came to 19.6 nM. Consider `Cc1ncc(CNC(=O)c2ccc(CNS(=O)(=O)c3ccc(F)cc3)cn2)s1` [5-(4-fluorobenzenesulfon-amidomethyl)-N-[(2-methyl-1,3-thiazol-5-yl)methyl]pyridine-2-carboxamide], for which the IC50 came out at 2840 nM.

Staying with this assay, now noted: binned NR2A inhibition concentration, read-out: Binned Activity.
On to `Cc1csc(CNC(=O)c2cnc(CNS(=O)(=O)c3ccc(F)c(Cl)c3)cn2)n1` [5-(3-chloro-4-fluorobenzenesulfon-amidomethyl)-N-[(4-methyl-1,3-thiazol-2-yl)methyl]pyrazine-2-carboxamide], for which the IC50 was > 10000 nM. For the compound `Cc1ncc(CNC(=O)c2ccc(CNS(=O)(=O)c3c(C)noc3C)cn2)s1`, the IC50 is > 10000 nM.
